# Experimental data as given in article PMC8333425, “Discovery of a dual Ras and ARF6 inhibitor from a GPCR endocytosis screen” (Nature Communications, 2021).
# Legend:
# Assay in all cases: KINOMEscan kinase binding assay
# [1] = biological target: T1, 384 kinases from the human genome (Homo sapiens, UniProt P51451); details: kinase BLK (Entrez BLK)
# T1 construct: purchased Eurofin/DiscoverX
# Outline: (§1)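 A panel of 384 human kinases was profiled by KINOMEscan binding in the presence of 10 µM compound. Kinase–ligand binding was given as percent of DMSO control, averaged from duplicates in a single run, with an S(10) selectivity score.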
# [2] = biological target: T2, 384 kinases from the human genome (Homo sapiens, UniProt Q13976); details: kinase PRKG1 (Entrez PRKG1)
# T2 construct: purchased Eurofin/DiscoverX
# Outline: as §1
# [3] = biological target: T3, 384 kinases from the human genome (Homo sapiens, UniProt P07332); details: kinase FES (Entrez FES)
# T3 construct: purchased Eurofin/DiscoverX
# T3 sequence (P07332 whole entry): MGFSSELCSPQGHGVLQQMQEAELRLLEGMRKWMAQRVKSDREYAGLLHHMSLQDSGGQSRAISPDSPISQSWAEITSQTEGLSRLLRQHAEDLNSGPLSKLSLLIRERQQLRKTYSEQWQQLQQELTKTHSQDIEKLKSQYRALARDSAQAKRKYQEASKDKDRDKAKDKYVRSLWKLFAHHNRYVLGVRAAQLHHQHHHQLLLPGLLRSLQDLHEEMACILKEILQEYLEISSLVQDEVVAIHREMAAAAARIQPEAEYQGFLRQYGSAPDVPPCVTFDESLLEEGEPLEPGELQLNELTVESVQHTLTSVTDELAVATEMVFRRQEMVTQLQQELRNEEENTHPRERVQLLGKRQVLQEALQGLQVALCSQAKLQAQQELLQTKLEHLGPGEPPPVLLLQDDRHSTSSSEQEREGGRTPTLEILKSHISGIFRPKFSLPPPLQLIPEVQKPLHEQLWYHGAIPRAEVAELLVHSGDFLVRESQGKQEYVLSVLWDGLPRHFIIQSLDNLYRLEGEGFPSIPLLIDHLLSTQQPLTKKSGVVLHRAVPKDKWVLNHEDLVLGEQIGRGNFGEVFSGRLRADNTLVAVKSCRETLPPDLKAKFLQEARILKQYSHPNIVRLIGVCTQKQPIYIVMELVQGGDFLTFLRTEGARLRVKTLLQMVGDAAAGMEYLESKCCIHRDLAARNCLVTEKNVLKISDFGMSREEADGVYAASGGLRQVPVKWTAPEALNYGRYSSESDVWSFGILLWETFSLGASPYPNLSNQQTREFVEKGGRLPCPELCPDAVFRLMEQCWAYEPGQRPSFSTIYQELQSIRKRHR
# Outline: as §1
# [4] = biological target: T4, 384 kinases from the human genome (Homo sapiens, UniProt Q04771); details: kinase ACVR1 (Entrez ACVR1)
# T4 construct: purchased Eurofin/DiscoverX
# Outline: as §1
# [5] = biological target: T5, 384 kinases from the human genome (Homo sapiens, UniProt Q2M2I8)
# T5 construct: purchased Eurofin/DiscoverX
# T5 sequence (Q2M2I8 whole entry): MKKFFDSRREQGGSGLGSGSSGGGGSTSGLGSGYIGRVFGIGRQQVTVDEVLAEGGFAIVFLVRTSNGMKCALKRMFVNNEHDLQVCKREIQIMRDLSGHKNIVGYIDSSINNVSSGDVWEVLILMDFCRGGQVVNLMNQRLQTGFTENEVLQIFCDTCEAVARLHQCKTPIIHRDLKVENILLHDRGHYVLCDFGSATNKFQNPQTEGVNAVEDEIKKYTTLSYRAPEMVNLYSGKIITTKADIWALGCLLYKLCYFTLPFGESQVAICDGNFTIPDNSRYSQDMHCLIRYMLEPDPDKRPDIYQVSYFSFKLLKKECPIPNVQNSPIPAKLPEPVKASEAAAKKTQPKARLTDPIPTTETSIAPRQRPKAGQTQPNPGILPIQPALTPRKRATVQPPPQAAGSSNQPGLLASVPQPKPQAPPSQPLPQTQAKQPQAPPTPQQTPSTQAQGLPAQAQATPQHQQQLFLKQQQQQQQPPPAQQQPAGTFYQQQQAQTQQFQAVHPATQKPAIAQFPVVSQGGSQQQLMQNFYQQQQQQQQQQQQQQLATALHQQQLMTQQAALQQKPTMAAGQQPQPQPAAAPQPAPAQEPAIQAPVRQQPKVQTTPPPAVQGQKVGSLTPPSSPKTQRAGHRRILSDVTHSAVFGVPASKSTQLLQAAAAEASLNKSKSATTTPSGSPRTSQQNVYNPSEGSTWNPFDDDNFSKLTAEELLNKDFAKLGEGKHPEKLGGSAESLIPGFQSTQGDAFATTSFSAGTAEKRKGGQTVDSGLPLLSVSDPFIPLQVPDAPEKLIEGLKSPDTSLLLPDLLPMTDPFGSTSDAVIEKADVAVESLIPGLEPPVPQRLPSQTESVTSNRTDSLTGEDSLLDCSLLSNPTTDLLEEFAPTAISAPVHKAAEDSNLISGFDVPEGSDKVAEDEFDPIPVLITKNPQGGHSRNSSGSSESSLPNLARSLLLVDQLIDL
# Outline: as §1
# [6] = biological target: T6, 384 kinases from the human genome (Homo sapiens, UniProt Q9C098); details: kinase DCAMKL3 (Entrez DCLK3)
# T6 construct: purchased Eurofin/DiscoverX
# Outline: as §1
# [7] = biological target: T7, 384 kinases from the human genome (Homo sapiens, UniProt Q8WU08); details: kinase YANK1 (Entrez STK32A)
# T7 construct: purchased Eurofin/DiscoverX
# Outline: as §1
# [8] = biological target: T8, 384 kinases from the human genome (Homo sapiens, UniProt Q9HCP0); details: kinase CSNK1G1 (Entrez CSNK1G1)
# T8 construct: purchased Eurofin/DiscoverX
# T8 sequence (Q9HCP0 whole entry): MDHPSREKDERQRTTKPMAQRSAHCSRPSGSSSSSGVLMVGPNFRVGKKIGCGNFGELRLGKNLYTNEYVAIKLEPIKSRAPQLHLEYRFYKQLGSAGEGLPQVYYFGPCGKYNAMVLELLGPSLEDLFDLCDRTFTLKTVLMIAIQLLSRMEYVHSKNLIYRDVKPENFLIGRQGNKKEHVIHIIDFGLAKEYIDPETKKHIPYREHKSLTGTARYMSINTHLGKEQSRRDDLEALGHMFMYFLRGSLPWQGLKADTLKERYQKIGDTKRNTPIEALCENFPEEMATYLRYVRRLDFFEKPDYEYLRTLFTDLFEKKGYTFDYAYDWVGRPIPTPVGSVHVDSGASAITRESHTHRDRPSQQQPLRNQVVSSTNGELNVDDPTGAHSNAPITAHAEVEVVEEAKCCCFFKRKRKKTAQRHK
# Outline: as §1
# [9] = biological target: T9, 384 kinases from the human genome (Homo sapiens, UniProt P35590); details: kinase TIE1 (Entrez TIE1)
# T9 construct: purchased Eurofin/DiscoverX
# Outline: as §1
# [10] = biological target: T10, 384 kinases from the human genome (Homo sapiens, UniProt P11362); details: kinase FGFR1 (Entrez FGFR1)
# T10 construct: purchased Eurofin/DiscoverX
# T10 sequence (P11362 22-822): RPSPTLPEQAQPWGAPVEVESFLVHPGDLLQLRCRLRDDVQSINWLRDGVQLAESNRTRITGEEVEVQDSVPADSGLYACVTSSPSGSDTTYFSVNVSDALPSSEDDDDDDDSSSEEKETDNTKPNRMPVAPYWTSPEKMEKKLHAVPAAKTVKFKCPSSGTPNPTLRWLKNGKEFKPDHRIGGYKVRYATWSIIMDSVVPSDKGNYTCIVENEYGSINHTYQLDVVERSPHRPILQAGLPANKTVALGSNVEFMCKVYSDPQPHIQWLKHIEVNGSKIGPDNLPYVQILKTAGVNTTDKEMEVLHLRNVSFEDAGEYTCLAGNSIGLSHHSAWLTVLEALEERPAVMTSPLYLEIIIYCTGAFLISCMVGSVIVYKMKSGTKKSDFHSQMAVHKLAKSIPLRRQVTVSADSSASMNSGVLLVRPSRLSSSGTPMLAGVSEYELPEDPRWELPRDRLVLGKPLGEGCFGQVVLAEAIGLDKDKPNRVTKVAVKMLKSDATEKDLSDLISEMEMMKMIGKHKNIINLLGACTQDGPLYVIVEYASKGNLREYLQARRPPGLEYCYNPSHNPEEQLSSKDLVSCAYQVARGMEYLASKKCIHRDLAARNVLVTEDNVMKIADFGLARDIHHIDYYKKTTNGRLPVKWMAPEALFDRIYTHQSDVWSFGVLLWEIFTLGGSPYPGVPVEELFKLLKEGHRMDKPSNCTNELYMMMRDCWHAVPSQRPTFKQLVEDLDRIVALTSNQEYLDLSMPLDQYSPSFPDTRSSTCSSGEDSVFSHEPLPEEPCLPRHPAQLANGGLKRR
# Outline: as §1
# [11] = biological target: T11, 384 kinases from the human genome (Homo sapiens, UniProt P53350); details: kinase PLK1 (Entrez PLK1)
# T11 construct: purchased Eurofin/DiscoverX
# Outline: as §1
# [12] = biological target: T12, 384 kinases from the human genome (Homo sapiens, UniProt Q96L34); details: kinase MARK4 (Entrez MARK4)
# T12 construct: purchased Eurofin/DiscoverX
# T12 sequence (Q96L34 whole entry): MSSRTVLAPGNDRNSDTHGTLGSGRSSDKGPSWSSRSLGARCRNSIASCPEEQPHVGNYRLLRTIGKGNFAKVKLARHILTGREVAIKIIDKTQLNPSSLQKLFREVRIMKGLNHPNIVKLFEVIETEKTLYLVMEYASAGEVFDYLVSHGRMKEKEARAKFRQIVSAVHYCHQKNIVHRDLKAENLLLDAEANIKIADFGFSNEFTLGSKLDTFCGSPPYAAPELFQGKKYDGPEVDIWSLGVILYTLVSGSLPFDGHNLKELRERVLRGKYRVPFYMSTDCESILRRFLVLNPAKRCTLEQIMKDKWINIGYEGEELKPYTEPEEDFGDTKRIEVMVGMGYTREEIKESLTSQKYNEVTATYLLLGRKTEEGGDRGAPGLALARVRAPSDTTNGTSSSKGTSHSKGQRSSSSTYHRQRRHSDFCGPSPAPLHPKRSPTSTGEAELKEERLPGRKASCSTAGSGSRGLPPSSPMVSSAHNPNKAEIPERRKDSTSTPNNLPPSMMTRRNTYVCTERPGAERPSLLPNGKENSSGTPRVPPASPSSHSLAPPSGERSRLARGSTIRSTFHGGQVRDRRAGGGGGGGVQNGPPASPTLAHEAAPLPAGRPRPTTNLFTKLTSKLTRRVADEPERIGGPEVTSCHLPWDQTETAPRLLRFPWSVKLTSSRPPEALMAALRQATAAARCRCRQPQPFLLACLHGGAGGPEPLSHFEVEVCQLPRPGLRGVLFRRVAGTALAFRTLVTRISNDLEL
# Outline: as §1
# [13] = biological target: T13, 384 kinases from the human genome (Homo sapiens, UniProt P23443); details: kinase S6K1 (Entrez RPS6KB1)
# T13 construct: purchased Eurofin/DiscoverX
# Outline: as §1
# [14] = biological target: T14, 384 kinases from the human genome (Homo sapiens, UniProt Q15139); details: kinase PRKD1 (Entrez PRKD1)
# T14 construct: purchased Eurofin/DiscoverX
# Outline: as §1
# [15] = biological target: T15, 384 kinases from the human genome (Homo sapiens, UniProt O75747); details: kinase PIK3C2G (Entrez PIK3C2G)
# T15 construct: purchased Eurofin/DiscoverX
# Outline: as §1
# [16] = biological target: T16, 384 kinases from the human genome (Homo sapiens, UniProt Q13237); details: kinase PRKG2 (Entrez PRKG2)
# T16 construct: purchased Eurofin/DiscoverX
# Outline: as §1
# [17] = biological target: T17, 384 kinases from the human genome (Homo sapiens, UniProt P29317); details: kinase EPHA2 (Entrez EPHA2)
# T17 construct: purchased Eurofin/DiscoverX
# Outline: as §1
# [18] = biological target: T18, 384 kinases from the human genome (Homo sapiens, UniProt Q8N4C8); details: kinase MINK (Entrez MINK1)
# T18 construct: purchased Eurofin/DiscoverX
# Outline: as §1
# [19] = biological target: T19, 384 kinases from the human genome (Homo sapiens, UniProt Q16584); details: kinase MLK3 (Entrez MAP3K11)
# T19 construct: purchased Eurofin/DiscoverX
# Outline: as §1
# [20] = biological target: T20, 384 kinases from the human genome (Homo sapiens, UniProt Q04912); details: kinase MST1R (Entrez MST1R)
# T20 construct: purchased Eurofin/DiscoverX
# Outline: as §1
# [21] = biological target: T21, 384 kinases from the human genome (Homo sapiens, UniProt P08631); details: kinase HCK (Entrez HCK)
# T21 construct: purchased Eurofin/DiscoverX
# Outline: as §1
# [22] = biological target: T22, 384 kinases from the human genome (Homo sapiens, UniProt Q16288); details: kinase TRKC (Entrez NTRK3)
# T22 construct: purchased Eurofin/DiscoverX
# T22 sequence (Q16288 32-839): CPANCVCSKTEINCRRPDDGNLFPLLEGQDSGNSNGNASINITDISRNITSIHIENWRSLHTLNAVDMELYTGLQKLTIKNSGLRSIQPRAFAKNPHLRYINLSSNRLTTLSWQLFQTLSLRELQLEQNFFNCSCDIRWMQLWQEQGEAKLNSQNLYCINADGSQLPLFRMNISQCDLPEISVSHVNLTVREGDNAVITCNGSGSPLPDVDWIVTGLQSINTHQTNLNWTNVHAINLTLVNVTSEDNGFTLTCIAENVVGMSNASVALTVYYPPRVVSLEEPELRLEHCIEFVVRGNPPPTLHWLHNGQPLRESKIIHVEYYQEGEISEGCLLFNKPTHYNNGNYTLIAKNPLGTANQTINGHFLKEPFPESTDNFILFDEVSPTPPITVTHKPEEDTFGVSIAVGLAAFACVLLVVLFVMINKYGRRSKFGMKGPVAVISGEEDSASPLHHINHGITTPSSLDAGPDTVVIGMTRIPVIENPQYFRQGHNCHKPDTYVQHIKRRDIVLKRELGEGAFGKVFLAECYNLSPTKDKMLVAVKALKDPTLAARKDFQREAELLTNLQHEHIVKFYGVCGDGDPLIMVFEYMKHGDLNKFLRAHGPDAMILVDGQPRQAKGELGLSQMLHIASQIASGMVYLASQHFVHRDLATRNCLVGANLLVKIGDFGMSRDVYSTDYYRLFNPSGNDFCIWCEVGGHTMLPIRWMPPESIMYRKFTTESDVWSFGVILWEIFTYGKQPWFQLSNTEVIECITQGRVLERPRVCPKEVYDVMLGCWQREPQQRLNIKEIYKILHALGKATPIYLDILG
# Outline: as §1
# [23] = biological target: T23, 384 kinases from the human genome (Homo sapiens, UniProt Q52WX2); details: kinase SBK1 (Entrez SBK1)
# T23 construct: purchased Eurofin/DiscoverX
# Outline: as §1
# [24] = biological target: T24, 384 kinases from the human genome (Homo sapiens, UniProt Q96J92); details: kinase WNK4 (Entrez WNK4)
# T24 construct: purchased Eurofin/DiscoverX
# Outline: as §1
# [25] = biological target: T25, 384 kinases from the human genome (Homo sapiens, UniProt P49761); details: kinase CLK3 (Entrez CLK3)
# T25 construct: purchased Eurofin/DiscoverX
# T25 sequence (P49761 whole entry): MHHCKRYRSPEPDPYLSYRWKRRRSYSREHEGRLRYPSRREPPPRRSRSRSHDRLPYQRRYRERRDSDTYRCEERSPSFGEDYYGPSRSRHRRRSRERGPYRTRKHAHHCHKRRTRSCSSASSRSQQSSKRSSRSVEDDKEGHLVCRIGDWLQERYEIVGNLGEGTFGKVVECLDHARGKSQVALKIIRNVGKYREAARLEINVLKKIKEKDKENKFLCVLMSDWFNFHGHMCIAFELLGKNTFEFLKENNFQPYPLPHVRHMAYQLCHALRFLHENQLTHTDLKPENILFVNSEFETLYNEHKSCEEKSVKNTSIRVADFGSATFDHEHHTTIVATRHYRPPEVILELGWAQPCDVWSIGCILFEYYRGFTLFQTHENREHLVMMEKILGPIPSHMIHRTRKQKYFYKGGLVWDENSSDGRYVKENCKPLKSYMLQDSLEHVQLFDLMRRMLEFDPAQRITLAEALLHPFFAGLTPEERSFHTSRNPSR
# Outline: as §1
# [26] = biological target: T26, 384 kinases from the human genome (Homo sapiens, UniProt Q8WXR4); details: kinase MYO3B (Entrez MYO3B)
# T26 construct: purchased Eurofin/DiscoverX
# Outline: as §1
compound,measurement,setting,value
CC(C)C(=O)N1CCN(c2ccc(NC(=O)c3cc4ccccc4o3)cc2Cl)CC1 [Compound 21],Percent Control,[1],78%
same,Percent Control,[2],96%
same,Percent Control,[3],73%
same,Percent Control,[4],70%
same,binding to AAK1,[5]; 10 µM of 21,failed to bind
same,Percent Control,[5]; kinase AAK1 (Entrez AAK1),100%
same,Percent Control,[6],97%
same,Percent Control,[7],81%
same,Percent Control,[8],87%
same,Percent Control,[9],100%
same,Percent Control,[10],99%
same,Percent Control,[11],77%
same,Percent Control,[12],98%
same,Percent Control,[13],94%
same,Percent Control,[14],97%
same,Percent Control,[15],100%
same,Percent Control,[16],92%
same,Percent Control,[17],40%
same,Percent Control,[18],63%
same,Percent Control,[19],93%
same,Percent Control,[20],91%
same,Percent Control,[21],99%
same,Percent Control,[22],24%
same,Percent Control,[23],100%
same,Percent Control,[24],100%
same,Percent Control,[25],100%
same,Percent Control,[26],58%
